Key:
[1] = tested on: intracellular triglyceride in HepG2 cells; assay: Reduction of intracellular triglyceride in HepG2 cells (Example 8); assay type: cell-based, human
From the text: Berberine chloride was used for comparison. The amount of TG in untreated control cells was defined as 100% and the amounts of TG in compound-treated cells were divided to that value.

[2] = tested on: LDLR mRNA expression in HepG2 cells; assay: LDLR mRNA expression in HepG2 cells, semi-quantitative RT-PCR; assay type: cell-based, human; conditions: 8 hours, FIG. 1
Protocol: HepG2 cells obtained from American Tissue Culture Collection (Manassas, Va., USA) were seeded in 6-well culture plates at a density of 0.8×10^6 cells/well cultured in EMEM containing 0.5% FBS and were treated with each purified compound at indicated doses for 8 hours. Total RNA was isolated, and 2 μg per sample was reverse transcribed with random primers using M-MLV (Promega) at 37° C. for 1 hour. PCR was carried out at 94° C. for 30 sec, 60° C. for 30 sec, and 72° C. for 30 sec with initial activation of the enzyme at 94° C. for 1 minute. Thirty cycles were performed for LDLR and GAPDH. PCR was performed using primers HLDLR-up and HLDLR-lo for LDLR and primers HGAPDH-up and HGAPDH-lo for GAPDH. The PCR products were separated on a 1% agarose gel and the band intensity was quantitated. LDLR mRNA levels were corrected by measuring GAPDH mRNA levels.

[3] = tested on: LDLR ligand uptake activity in HepG2 cells; assay: DiI-LDL uptake in HepG2 cells (Example 6); assay type: cell-based, human; conditions: 20 hours; further: key: +: slightly increased fluorescent intensity over control; ++: modestly increased fluorescent intensity over control; +++: strongly increased fluorescent intensity over control
Protocol: HepG2 cells (2×10^5 cells/well) in 24-well culture plates were treated with various compounds at indicated concentrations for 20 hours. The fluorescent 1.1′-dioctadecyl-3,3,3′,3′-tetramethylindocarbocyanin perchlorate (DiI-LDL) (Biomedical Technologies, Stoughton, Mass.) at a concentration of 2 μg/mL was added to cells at the end of treatment. After 4 hours, the medium was removed, cells were washed with cold PBS, and were examined immediately under a fluorescent microscope (Nikon) at 200× amplification. The fluorescent intensity in compound-treated cells was compared to that in untreated control cells. […] In these experiments berberine chloride was used for comparison.

[4] = tested on: LDLR mRNA expression in HepG2 cells; assay: LDLR mRNA expression in HepG2 cells, quantitative real-time RT-PCR (Example 7); assay type: cell-based, human; conditions: dose less than or equal to 10 μM, 24 hours
Protocol: In yet another experiment, HepG2 cells were treated with various compounds for 24 hours at the indicated doses. Total RNA was isolated and 2 μg was used to generate cDNA in a reaction containing random primers and M-MLV at 37° C. for 1 hour in a volume of 25 μL. Real-time PCR was performed on the cDNA using MCEP REALPLEX 2 SYSTEM (Eppendorf) and Universal MasterMix (Applied Biosystems). Human LDLR and GAPDH Pre-Developed TaqMan Assay Reagents (Applied Biosystems) were used to assess the levels of mRNA expressions in HepG2. The levels of LDLR mRNA were normalized to that of GAPDH. Each RNA samples was assayed in triplicate. The abundance of LDLR mRNA in untreated cells was defined as 1, and the amounts of LDLR mRNA from compound-treated cells were plotted relative to that value in FIG. 2B. The data shown are mean±s.d.
Activities of some compounds of Formulas I, II and EE on LDLR mRNA expression were determined. HepG2 cells were treated with new compounds individually at a dose less than or equal to 10 μM for 24 hours. […] In these experiments, berberine chloride was included for comparison.

[5] = Stability of compound 69 under cell culture conditions, LC-MS of medium; assay type: in vitro ADME, human; conditions: for Peak Area m/z 466.1: 20 μM in HepG2 culture medium
Protocol: HepG2 cells were cultured in 6-well cell culture plate in EMEM containing 0.5% FBS overnight. Compound 69+ was added to the culture medium to a final concentration of 20 μM. Medium was collected at 0 (control), 4, 8, or 24 hours after the compound addition.
The collected media were analyzed by LC-MS on a Thermo Fisher Scientific Surveyor HPLC system and LCQ ion trap MS with electrospray ionization source. A 50×2. 1 mm Hypersil Gold C18 3 um column was used with a flow rate of 200 uL/min. The method conditions were 98% A (0.1% formic acid in water)/2% B (0.1% formic acid in acetonitrile) then a gradient to 95% B in 10 minutes. The injection volume was 10 uL.

Row | Compound | Activity on DiI-LDL uptake ([3]; A, compound dose ≦10 μM) | Activity on LDLR mRNA expression (Fold of control) [4] | also measured
1 | COc1ccc2c(c1OCCO)CN1CCc3cc4c(cc3C1C2)OCO4 (stereo not shown) [Compound 82, 9-O-2-(1′-hydroxy-ethyl)-10-methoxy-5,8,13,13a-tetrahydro-6H-[1,3]dioxolo[4,5-g]isoquino[3,2-a]isoquinoline] |  |  | Activity on reduction of cellular TG accumulation (% of control) ([1]; B, compound dose ≦40 μM): 53.2 ± 21.3 % of control
2 | COc1cc2c(cc1OC)[C@H]1[C@@H](C)c3ccc(OC)c(OC)c3CN1CC2 [14R,13S-(+)-CRDL] |  |  | effects on LDLR mRNA expression [2]: potent and dose-dependent effects; Activity on DiI-LDL uptake ([3]; B, compound dose ≦40 μM): ++
3 | CCOC(=O)COc1c(OC)ccc2c1CN1CCc3cc4c(cc3C1C2)OCO4 (stereo not shown) [Compound 83, 2-[10-methoxy-5,8,13,13a-tetrahydro-6H-[1,3]dioxolo[4,5-g]isoquino[3,2-a]isoquinoline-9-yl]-acetic esate] |  |  | Activity on reduction of cellular TG accumulation (% of control) ([1]; B, compound dose ≦40 μM): 63.0 ± 0.90 % of control
4 | COc1ccc2c(c1OC(=O)Nc1ccc(OC(F)(F)F)cc1)CN1CCc3cc4c(cc3C1C2)OCO4 (stereo not shown) [Compound 44, (10-methoxy(5,6,7,8,13,13a-hexahydro-2H-1,3-dioxolano[4,5-g]isoquinolino[3,2-a]isoquinolin-9-yloxy))-N-[4-(trifluoromethoxy)phenyl] carboxamide] | ++ | 2.20 ± 0.06 Fold of control | 
5 | COc1ccc2c(c1OS(=O)(=O)c1ccccc1)CN1CCc3cc4c(cc3C1C2)OCO4 (stereo not shown) [Compound 69, 9-benzenesulfonyloxy-10-methoxy-5,8,13,13a-tetrahydro-6H-[1,3]dioxolo[4,5-g]isoquino[3,2-a]isoquinoline] | +++ | 2.21 ± 0.09 Fold of control | Activity on reduction of cellular TG accumulation (% of control) ([1]; A, compound dose ≦10 μM): 60.4 ± 7.34 % of control; Peak Area m/z 466.1 ([5]; 0 (control) hours): 2.38e8; Peak Area m/z 466.1 ([5]; 4 h): 9.67e7; Peak Area m/z 466.1 ([5]; 8 h): 9.22e7; Peak Area m/z 466.1 ([5]; 24 h): 7.03e7; stability under cell culture conditions ([5]; HepG2 culture medium, up to 24 hours): fairly stable under cell culture conditions
6 | COc1ccc2c(c1OC(=O)N(C)C)CN1CCc3cc4c(cc3C1C2)OCO4 (stereo not shown) [Compound 43, (10-methoxy(5,6,7,8,13,13a-hexahydro-2H-1,3-dioxolano[4,5-g]isoquinolino[3,2-a]isoquinolin-9-yloxy))-N,N-dimethylcarboxamide] | ++ | 1.95 ± 0.18 Fold of control | 
7 | COc1ccc2c(c1OC)C(CC(C)=O)N1CCc3cc4c(cc3C1=C2)OCO4 (stereo not shown) [Compound 30, 1-(9,10-dimethoxy-5,6,7,8-tetrahydro-2H-1,3-dioxolano[4,5-g]isoquinolino[3,2-a]isoquinolin-8-yl)acetone] | + | 1.47 ± 0.13 Fold of control | 
8 | COc1cc2c(cc1OC)[C@H]1Cc3ccc(OC)c(OC)c3CN1CC2 [14R-(+)-THP, 14R-tetrahydropalmatine, reference compound] |  |  | effects on LDLR mRNA expression [2]: potent and dose-dependent effects; Activity on DiI-LDL uptake ([3]; B, compound dose ≦40 μM): ++
9 | COc1ccc2c(c1OS(=O)(=O)c1cccs1)CN1CCc3cc4c(cc3C1C2)OCO4 (stereo not shown) [Compound 56, 10-methoxy-5,6,7,8,13,13a-hexahydro-2H-1,3-dioxolano[4,5-g]isoquinolino[3,2-a]isoquinolin-9-yl thiophene-2-sulfonate] | +++ | 3.18 ± 0.63 Fold of control | 
10 | COc1ccc2c(c1OS(=O)(=O)c1ccccc1C)CN1CCc3cc4c(cc3C1C2)OCO4 (stereo not shown) [Compound 50, 10-methoxy-5,6,7,8,13,13a-hexahydro-2H-1,3-dioxolano[4,5-g]isoquinolino[3,2-a]isoquinolin-9-yl 2-methylbenzenesulfonate] | +++ | 4.74 ± 0.96 Fold of control | 
11 | COc1ccc2c(c1OC(=O)Nc1cccc(C)c1)CN1CCc3cc4c(cc3C1C2)OCO4 (stereo not shown) [Compound 46, (10-methoxy(5,6,7,8,13,13a-hexahydro-2H-1,3-dioxolano[4,5-g]isoquinolino[3,2-a]isoquinolin-9-yloxy))-N-(3-methylphenyl)carboxamide] | ++ | 1.80 ± 0.16 Fold of control | 
12 | COc1ccc2cc3[n+](cc2c1OC)CCc1cc2c(cc1-3)OCO2 [Berberine, reference compound] |  | 1.30 ± 0.11 Fold of control | Activity on DiI-LDL uptake ([3]; B, compound dose ≦40 μM): +; Activity on reduction of cellular TG accumulation (% of control) ([1]; B, compound dose ≦40 μM): 70.9 ± 5.4 % of control
13 | COc1ccc2c(c1OCc1ccccc1[N+](=O)[O-])CN1CCc3cc4c(cc3C1C2)OCO4 (stereo not shown) [Compound 26, 10-methoxy-9-[(2-nitrophenyl)methoxy]-5,6,7,8,13,13a-hexahydro-2H-1,3-dioxolano[4,5-g]isoquinolino[3,2-a]isoquinoline] | ++ | 1.29 ± 0.10 Fold of control | 
14 | COc1cc2c(cc1OC)C1Cc3cccc(OC)c3CN1CC2 (stereo not shown) [Compound 22, 2,3,9-trimethoxy-5,6,7,8,13,13a-hexahydroisoquinolino[3,2-a]isoquinoline] |  |  | Activity on reduction of cellular TG accumulation (% of control) ([1]; B, compound dose ≦40 μM): 53.35 ± 12.68 % of control
15 | COc1ccc2c(c1OS(=O)(=O)c1ccc(C(C)(C)C)cc1)CN1CCc3cc4c(cc3C1C2)OCO4 (stereo not shown) [Compound 38, 10-methoxy-5,6,7,8,13,13a-hexahydro-2H-1,3-dioxolano[4,5-g]isoquinolino[3,2-a]isoquinolin-9-yl 4-(tert-butyl)benzenesulfonate] | ++ | 1.82 ± 0.10 Fold of control | 

Reference: patent US20110009628A1, “Compounds and Compositions for Modulating Lipid Levels and Methods of Preparing Same” (priority 2009, published 2011)
